Assay results reported in PubChem BioAssay AID248 (DTP/NCI, 2004).
Where “and” joins values, the source holds several entries; their conditions need not be identical. Equal entries are not always repeated. Inconclusive results and toxic doses are left out. Rule as the data show it: active = T/C of 150% or more; inactive = T/C below 125%.

Tested on: L1210 leukemia ip in BDF1 mice, survival T/C
Assay: NCI In Vivo Anticancer Drug Screen. Data for tumor model L1210 Leukemia (intraperitoneal) in B6D2F1 (BDF1) mice
Conditions: endpoint: mean survival time, higher = longer survival
Outline: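 Read-out is survival time, reported as the treated-group measurement over the vehicle-control measurement.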

Measured: T/C

O=[N+]([O-])c1ccc(N/N=C/C(c2ccccc2)c2ccsc2)c([N+](=O)[O-])c1 (stereo not drawn)
inactive: dose: 50.0 mg/kg/injection, schedule: Q04DX003 (ip), vehicle: saline 104 % of control | dose: 100.0 mg/kg/injection, schedule: Q01DX001 (ip), vehicle: saline with Tween-80 97 % of control | dose: 100.0 mg/kg/injection, schedule: Q04DX003 (ip), vehicle: saline 106 % of control | dose: 200.0 mg/kg/injection, schedule: Q01DX001 (ip), vehicle: saline with Tween-80 96 % of control | dose: 200.0 mg/kg/injection, schedule: Q04DX003 (ip), vehicle: saline 104 % of control

CC1([CH2][Hg][I])CS(=O)(=O)CC(C)([CH2][Hg][I])O1 (stereo not drawn)
inactive: dose: 5.0 mg/kg/injection, schedule: Q01DX001 (ip), vehicle: saline 104 % of control | dose: 5.0 mg/kg/injection, schedule: Q01DX015 (ip), vehicle: saline 94 % of control | dose: 10.0 mg/kg/injection, schedule: Q01DX001 (ip), vehicle: saline 104 % of control | dose: 10.0 mg/kg/injection, schedule: Q01DX015 (ip), vehicle: saline 97 % of control | dose: 20.0 mg/kg/injection, schedule: Q01DX001 (ip), vehicle: saline 96 % of control | dose: 20.0 mg/kg/injection, schedule: Q01DX015 (ip), vehicle: saline 102 % of control | dose: 40.0 mg/kg/injection, schedule: Q01DX001 (ip), vehicle: saline 98 % of control | dose: 40.0 mg/kg/injection, schedule: Q01DX015 (ip), vehicle: saline 108 % of control | dose: 80.0 mg/kg/injection, schedule: Q01DX001 (ip), vehicle: saline 104 % of control

C=CCn1c2c(c3ccccc31)CCC2
inactive: dose: 50.0 mg/kg/injection, schedule: Q01DX009 (ip), vehicle: saline with Tween-80 86 % of control | dose: 100.0 mg/kg/injection, schedule: Q01DX009 (ip), vehicle: saline with Tween-80 93 % of control

O=NN(CCCl)C(=O)Nc1cc(NC(=O)N(CCCl)N=O)cc(C(=O)O)c1
inactive: dose: 0.22 mg/kg/injection, schedule: Q01DX009 (ip), vehicle: saline 110 % of control | dose: 0.34 mg/kg/injection, schedule: Q01DX009 (ip), vehicle: saline 117 % of control | dose: 0.62 mg/kg/injection, schedule: Q01DX001 (ip), vehicle: carboxymethylcellulose (CMC) 112 % of control | dose: 0.83 mg/kg/injection, schedule: Q04DX003 (ip), vehicle: saline 114 % of control | dose: 1.25 mg/kg/injection, schedule: Q01DX001 (ip), vehicle: carboxymethylcellulose (CMC) 123 % of control | dose: 1.25 mg/kg/injection, schedule: Q04DX003 (ip), vehicle: saline 122 % of control | dose: 5.0 mg/kg/injection, schedule: Q01DX009 (ip), vehicle: Klucel (hydroxypropylcellulose) (HPC) 93 % of control | dose: 20.0 mg/kg/injection, schedule: Q01DX009 (ip), vehicle: saline 102 % of control
active: dose: 0.52 mg/kg/injection, schedule: Q01DX009 (ip), vehicle: saline 290 % of control | dose: 1.7 mg/kg/injection, schedule: Q01DX001 (ip), vehicle: saline 155 % of control | dose: 2.6 mg/kg/injection, schedule: Q01DX001 (ip), vehicle: saline with Tween-80 151 % of control | dose: 5.0 mg/kg/injection, schedule: Q01DX009 (ip), vehicle: saline 162 % of control | dose: 6.6 mg/kg/injection, schedule: Q04DX003 (ip), vehicle: saline 153 % of control | dose: 9.0 mg/kg/injection, schedule: Q01DX001 (ip), vehicle: saline 152 % of control | dose: 10.0 mg/kg/injection, schedule: Q01DX009 (ip), vehicle: Klucel (hydroxypropylcellulose) (HPC) 150 % of control and 160 % of control | dose: 10.0 mg/kg/injection, schedule: Q01DX009 (ip), vehicle: saline 212 % of control | dose: 12.0 mg/kg/injection, schedule: Q01DX001 (ip), vehicle: saline 150 % of control | dose: 13.0 mg/kg/injection, schedule: Q04DX003 (ip), vehicle: saline 155 % of control | dose: 15.0 mg/kg/injection, schedule: Q01DX009 (ip), vehicle: Klucel (hydroxypropylcellulose) (HPC) 150 % of control | dose: 17.0 mg/kg/injection, schedule: Q01DX001 (ip), vehicle: saline with Tween-80 196 % of control | dose: 20.0 mg/kg/injection, schedule: Q01DX009 (ip), vehicle: Klucel (hydroxypropylcellulose) (HPC) 195 % of control | dose: 20.0 mg/kg/injection, schedule: Q04DX003 (ip), vehicle: saline 161 % of control | dose: 26.0 mg/kg/injection, schedule: Q01DX001 (ip), vehicle: saline with Tween-80 155 % of control | dose: 26.0 mg/kg/injection, schedule: Q01DX001 (ip), vehicle: saline 152 % of control

CC(=O)Nc1ccc(NC(=O)/C=C/c2ccccc2)cc1
inactive: dose: 100.0 mg/kg/injection, schedule: Q01DX009 (ip), vehicle: Klucel (hydroxypropylcellulose) (HPC) 103 % of control | dose: 200.0 mg/kg/injection, schedule: Q01DX009 (ip), vehicle: Klucel (hydroxypropylcellulose) (HPC) 95 % of control | dose: 400.0 mg/kg/injection, schedule: Q01DX009 (ip), vehicle: Klucel (hydroxypropylcellulose) (HPC) 105 % of control
